In PMC4109680, “Identification and Preclinical Pharmacology of the γ-Secretase Modulator BMS-869780” (International Journal of Alzheimer's Disease, 2014):
pIC50: −log10 of the molar value.

What was measured:
Aβ1-40 (H4-APPsw) = assay: Aβ1-40 time-resolved fluorescence immunoassay in H4-APPsw cell cultures; assay type: cell-based, human; settings: for pIC50: Homo sapiens, H4-APPsw cultures treated overnight
Procedure: H4-APPsw cell cultures were maintained on Dulbecco's modified Eagle's medium (DMEM) supplemented with L-glutamine (2 mM), fetal bovine serum (10%), and G418 (100 μg/mL). […] Aβ1-42 and Aβ1-40 assays, and Notch inhibition assays, were carried out as described previously. Mouse embryonic fibroblasts deficient in PS1 and PS2 (MEF dKO) were passaged twice per week in DMEM/F-12 medium, consisting of a 1 : 1 mixture of DMEM and F-12 nutrient mixture supplemented with 10% fetal bovine serum, penicillin, and streptomycin. For expression of human presenilin-1 in MEF dKO cells, the full length human presenilin-1 cDNA open reading frame was cloned between the BamHI and XhoI sites of the vector pcDNA5/FRT (Invitrogen), placing presenilin-1 expression under the control of the CMV promoter. The M146V mutated allele was introduced into the presenilin-1 expression construct by polymerase chain reaction using the oligonucleotide primers 5′-[…]-3′ and 5′-[…]-3 (QuikChange kit, Invitrogen). MEF dKO cultures were cotransfected with DNA constructs expressing APP-CTF, encoding the C-terminal 99 amino acids of APP [61] and either the human presenilin-1 or presenilin-1 M146V allele. Transfected cultures were incubated overnight at 37°C in 5% CO2 atmosphere and then harvested, resuspended in DMEM/F-12 medium, dispensed into 96-well culture plates, and incubated for 6 hours at 37°C in 5% CO2 atmosphere. Culture medium was then replaced with Ultraculture serum free medium (Lonza, Rockland, ME) with or without compounds at a range of concentrations and incubated overnight.
IC50 determinations for Aβ1-42 and Aβ1-40 in H4-APPsw cultures in 384-well format were determined using homogeneous time-resolved fluorescence immunoassays as previously described. The principle of these assays is illustrated in Figures 1(c) and 1(d). In other experiments using H4-APPsw cultures, Aβ was quantified by ELISA; for Aβ1-42 the combination of monoclonal antibodies was 26D6 and 565-HRP; for Aβ1-40 it was TSD and 26D6-HRP, and for Aβ1-x it was 4G8 and 26D6-HRP. In some experiments a novel 4-plex Aβ electrochemiluminescence immunoassay was used (Mesoscale Discovery catalog number N45ZA-1). Briefly, the 4-plex was carried out in 96-well format, with 4 separate spots of capture antibodies in each well. […] For Aβ in transiently transfected PS1/PS2 dKO fibroblasts, Aβ1-42 was quantified using an ELISA kit (WACO), and Aβ1-40 was quantified by ELISA as described above for H4-APPsw cultures. […] For the rat and mouse experiments illustrated in Figures 7 and 8, brain samples were prepared by solid phase extraction, and endogenous rat brain Aβ1-42 and Aβ1-40 were quantified by ELISA as previously described for wild type mice. […]

mNotch1Δ1865 = assay: Western blot of NICD and mNotch1Δ1865 in transfected HeLa cell cultures; assay type: cell-based
Procedure: Inhibition of Notch signaling in cultured cells using a mouse-derived truncated Notch1 transgene, mNotch-ΔE [67], has been described in detail previously. Western blots for mNotchΔ1865 and NICD using 9E10 anti-c-myc monoclonal were carried out as previously described.
The effect of BMS-869780 on Notch processing was evaluated using transcriptional reporter assays and western blotting of NICD levels. HeLa cell cultures were transfected with mNotch1ΔE and CBF1-luciferase reporter constructs and treated with BMS-869780. In most replicates of this experiment, inhibition of luciferase reporter occurred with IC50 > 10 μM. […] To further evaluate the effect of BMS-869780 on Notch processing, western blots of cell cultures were carried out using mNotch1Δ1865, a truncated version of mNotch1ΔE that facilitates separation of NICD product from mNotch1 substrate on western blots. HeLa cell cultures were transfected with mNotch1Δ1865 and treated overnight with compounds before western blotting. […] Furthermore, the GSIs caused an increased level of mNotch1Δ1865 substrate, most likely due to inhibition of its turnover by γ-secretase, as previously noted by Blat et al..
(b) HeLa cell cultures were transfected with mNotchΔ1865, treated with compounds overnight, and cell extracts were evaluated by western blot using anti-c-myc-HRP conjugate. Lanes 1 and 9: DMSO (0.1%) vehicle. Lane 2: BMS-299897 at 1 μM. Lane 3: BMS-433796 at 0.3 μM. Lanes 4–8: BMS-869780 at 0.1, 0.3, 1, 3, and 10 μM, respectively.

| SMILES | pIC50 (Aβ1-40 (H4-APPsw)) | NICD levels (mNotch1Δ1865; BMS-299897 at 1 μM, BMS-433796 at 0.3 μM) | shift in IC50 values between Aβ1-42 and Aβ1-40 (Aβ1-40 (H4-APPsw); H4-APPsw) [fold] | mNotch1Δ1865 substrate levels (mNotch1Δ1865; 10 μM) | cell observation (mNotch1Δ1865; 10 μM, HeLa cultures) | NICD levels (mNotch1Δ1865; concentrations up to 3 μM) |
| --- | --- | --- | --- | --- | --- | --- |
| C[C@H](c1ccc(F)cc1CCCC(=O)O)N(c1cc(F)ccc1F)S(=O)(=O)c1ccc(Cl)cc1 [BMS-299897, reference compound] | 8.89 | greatly reduced NICD | – | – | – | – |
| COc1cc(Nc2nc3n(n2)CCCC[C@H]3c2ccc(F)cc2)ccc1-n1cnc(Cl)c1 [BMS-869780] | 7.62 | – | 4 | did not increase mNotch1Δ1865 levels | detached and dead cells | no effect on NICD levels |
